According to patent publication US9598421B2, “Imidazopyridazine compounds” (Pfizer Inc., priority 2014, dated 2017):
Read-outs that look alike come from different tables or passages of the source.

How the values were obtained:
Type in all cases: biochemical
Human PDE4D = Human PDE4D (Homo sapiens (Human), UniProt Q08499); experiment: PDE4D Scintillation Proximity Assay (SPA), inhibition of enzyme activity; details: read-out: Human PDE4D FL
Human PDE4C = Human PDE4C (Homo sapiens (Human), UniProt Q08493); experiment: PDE4C Scintillation Proximity Assay (SPA), inhibition of enzyme activity; details: read-out: Human PDE4C FL
Experimental: (§1) The PDE4A3, PDE4B1, PDE4C1 and PDE4D3 assays use the Scintillation Proximity Assay (SPA) technology to measure the inhibition of human recombinant PDE4A1, PDE4B3, PDE4C1, and PDE4D3 enzyme activity by compounds in vitro. The PDE4A1, PDE4B3, PDE4C1, and PDE4D3 assays are run in parallel using identical parameters, except for the concentration of enzyme (80 pM PDE4A3, 40 pM PDE4B3, 40 pM PDE4C1 and 10 pM PDE4D). […] Reactions are incubated for 30 min at 25° C. The addition of 20 uL of 8 mg/ml yitrium silicate SPA beads (Perkin Elmer) stops the reaction. The plates are sealed (TopSeal, Perkin Elmer) and the beads are allowed to settle for 8 hrs, after which they are read on the Trilux Microbeta overnight.

Human PDE4A = Human PDE4A (Homo sapiens (Human), UniProt P27815); experiment: PDE4A Scintillation Proximity Assay (SPA), inhibition of enzyme activity; details: read-out: Human PDE4A FL
Experimental: as §1

[1] = human recombinant enzyme, 1 μM cAMP substrate, 30 min at 25° C., geometric mean of 2-9 determinations unless otherwise indicated

Chain of Human PDE4C (Q08493 2-712): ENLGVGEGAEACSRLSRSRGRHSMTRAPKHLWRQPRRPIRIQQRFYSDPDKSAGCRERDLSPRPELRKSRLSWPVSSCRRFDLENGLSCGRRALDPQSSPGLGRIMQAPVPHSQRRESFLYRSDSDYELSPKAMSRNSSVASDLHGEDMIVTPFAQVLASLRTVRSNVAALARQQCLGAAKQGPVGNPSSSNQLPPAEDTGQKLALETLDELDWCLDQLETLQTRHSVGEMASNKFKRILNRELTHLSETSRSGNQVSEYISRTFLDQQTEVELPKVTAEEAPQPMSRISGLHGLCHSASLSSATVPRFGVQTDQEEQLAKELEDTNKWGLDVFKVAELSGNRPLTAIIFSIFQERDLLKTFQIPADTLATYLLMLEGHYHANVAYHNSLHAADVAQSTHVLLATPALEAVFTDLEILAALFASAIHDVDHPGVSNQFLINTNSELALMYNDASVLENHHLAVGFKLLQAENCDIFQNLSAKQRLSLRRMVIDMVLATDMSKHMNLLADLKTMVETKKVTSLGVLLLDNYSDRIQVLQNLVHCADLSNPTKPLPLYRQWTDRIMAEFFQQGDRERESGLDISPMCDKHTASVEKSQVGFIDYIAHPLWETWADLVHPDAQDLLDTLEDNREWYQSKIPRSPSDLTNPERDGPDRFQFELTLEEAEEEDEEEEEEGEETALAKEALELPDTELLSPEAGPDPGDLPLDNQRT
Chain of Human PDE4D (Q08499 186-808): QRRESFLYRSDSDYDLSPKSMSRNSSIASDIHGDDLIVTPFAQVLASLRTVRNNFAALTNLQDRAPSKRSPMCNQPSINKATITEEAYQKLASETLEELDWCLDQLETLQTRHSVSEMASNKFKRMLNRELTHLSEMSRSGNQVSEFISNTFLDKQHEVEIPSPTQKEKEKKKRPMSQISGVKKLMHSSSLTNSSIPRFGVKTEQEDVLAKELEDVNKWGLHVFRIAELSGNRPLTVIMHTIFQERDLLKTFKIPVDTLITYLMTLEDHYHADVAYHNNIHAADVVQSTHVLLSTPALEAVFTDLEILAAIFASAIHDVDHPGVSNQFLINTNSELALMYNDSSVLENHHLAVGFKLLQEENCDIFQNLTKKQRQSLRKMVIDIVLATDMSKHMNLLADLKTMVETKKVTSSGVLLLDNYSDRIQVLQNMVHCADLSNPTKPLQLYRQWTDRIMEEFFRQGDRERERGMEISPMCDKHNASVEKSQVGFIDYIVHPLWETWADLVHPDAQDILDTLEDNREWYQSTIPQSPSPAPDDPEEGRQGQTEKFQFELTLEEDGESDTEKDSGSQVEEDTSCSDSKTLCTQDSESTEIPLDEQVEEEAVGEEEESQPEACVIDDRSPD
Chain of Human PDE4A (P27815 other isoform, or with tags, fused parts or gaps): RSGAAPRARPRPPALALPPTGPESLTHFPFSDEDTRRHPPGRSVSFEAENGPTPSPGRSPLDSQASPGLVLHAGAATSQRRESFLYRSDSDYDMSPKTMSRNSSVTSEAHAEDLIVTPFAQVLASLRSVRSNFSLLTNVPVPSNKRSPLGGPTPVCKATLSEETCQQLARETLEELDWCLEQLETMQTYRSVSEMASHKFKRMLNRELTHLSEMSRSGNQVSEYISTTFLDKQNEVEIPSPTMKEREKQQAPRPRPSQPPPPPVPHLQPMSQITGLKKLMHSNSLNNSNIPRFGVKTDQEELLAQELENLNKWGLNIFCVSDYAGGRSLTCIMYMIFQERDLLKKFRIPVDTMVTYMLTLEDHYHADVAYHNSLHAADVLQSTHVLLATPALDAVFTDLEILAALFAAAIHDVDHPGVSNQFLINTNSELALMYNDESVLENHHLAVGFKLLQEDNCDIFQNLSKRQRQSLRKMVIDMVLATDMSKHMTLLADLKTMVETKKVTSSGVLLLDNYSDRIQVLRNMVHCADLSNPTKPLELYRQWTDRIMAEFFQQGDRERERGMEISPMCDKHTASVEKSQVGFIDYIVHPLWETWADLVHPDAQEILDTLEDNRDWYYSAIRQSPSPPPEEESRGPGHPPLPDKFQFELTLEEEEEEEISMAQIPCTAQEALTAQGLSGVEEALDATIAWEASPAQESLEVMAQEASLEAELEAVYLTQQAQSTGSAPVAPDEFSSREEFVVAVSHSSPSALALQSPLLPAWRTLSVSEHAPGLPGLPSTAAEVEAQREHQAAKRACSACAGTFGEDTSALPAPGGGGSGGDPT

Compound | IC50 (Human PDE4D; [1]) [nM] | IC50 (Human PDE4C; [1]) [nM] | IC50 (Human PDE4A; [1]) [nM] | IC50 (Human PDE4D) [nM] | IC50 (Human PDE4C) [nM] | IC50 (Human PDE4A) [nM]
O=C(NC1CC1)c1nc2cccnn2c1-c1ccc(Cl)cc1F [Example 40, 3-(4-chloro-2-fluorophenyl)-N-cyclopropylimidazo[1,2-b]pyridazine-2-carboxamide] | 9020 | 58.1 | 19.6 | – | – | –
O=C(NC1CC1)c1nc2cccnn2c1-c1ccc2ocnc2c1 [Example 39, 3-(1,3-benzoxazol-5-yl)-N-cyclopropylimidazo[1,2-b]pyridazine-2-carboxamide] | 3820 | 67.8 | 14.8 | – | – | –
O=C(NC1CC1)c1nc2cccnn2c1-c1ccc2ncoc2c1 [Example 88, 3-(1,3-benzoxazol-6-yl)-N-cyclopropylimidazo[1,2-b]pyridazine-2-carboxamide] | 10400 | 136 | 45 | – | – | –
Cc1cc(Cl)ccc1-c1c(C(=O)N[C@@H]2C[C@@H]2F)nc2cccnn12 [Example 70, 3-(4-chloro-2-methylphenyl)-N-[(1R,2S)-2-fluorocyclopropyl]imidazo[1,2-b]pyridazine-2-carboxamide] | 5760 | 90 | 36.4 | – | – | –
O=C(NC1CC1)c1nc2cccnn2c1-c1ccc(Cl)cc1 [Example 2, 3-(4-Chlorophenyl)-N-cyclopropylimidazo[1,2-b]pyridazine-2-carboxamide] | – | – | – | 4340 | 27.9 | 10.7
CCCNC(=O)c1nc2cccnn2c1-c1cncc(Cl)c1 [Example 48, 3-(5-chloropyridin-3-yl)-N-propylimidazo[1,2-b]pyridazine-2-carboxamide] | > 7670 | 212 | 768 | – | – | –
CC1(NC(=O)c2nc3cccnn3c2-c2ccc(Cl)cc2)CC1 [Example 33, 3-(4-chlorophenyl)-N-(1-methylcyclopropyl)imidazo[1,2-b]pyridazine-2-carboxamide] | 2330 | 127 | 58.6 | – | – | –
O=C(NCC1CC1)c1nc2cccnn2c1-c1ccc(Cl)cc1 [Example 102, 3-(4-chlorophenyl)-N-(cyclopropylmethyl)imidazo[1,2-b]pyridazine-2-carboxamide] | 5010 | 76 | 59.9 | – | – | –
O=C(NC1CC1)c1nc2cccnn2c1-c1ccc(Cl)c(F)c1 [Example 10, 3-(4-chloro-3-fluorophenyl)-N-cyclopropylimidazo[1,2-b]pyridazine-2-carboxamide] | 590 | 6.84 | 1.51 | – | – | –
O=C(NC1CC1)c1nc2cccnn2c1-c1ccc(OC(F)F)nc1 [Example 87, N-cyclopropyl-3-[6-(difluoromethoxy)pyridin-3-yl]imidazo[1,2-b]pyridazine-2-carboxamide] | 6790 | 397 | 240 | – | – | –
O=C(NC1CC1)c1nc2cccnn2c1-c1cc(F)c(Cl)cc1F [Example 9, 3-(4-Chloro-2,5-difluorophenyl)-N-cyclopropylimidazo[1,2-b]pyridazine-2-carboxamide] | 1490 | 40.9 | 3.83 | – | – | –
Cc1ccc(-c2c(C(=O)N[C@@H]3C[C@@H]3F)nc3cccnn23)cc1Cl [Example 71, 3-(3-chloro-4-methylphenyl)-N-[(1R,2S)-2-fluorocyclopropyl]imidazo[1,2-b]pyridazine-2-carboxamide] | 113 | 2 | < 0.669 | – | – | –
O=C(NC1CC1)c1nc2cccnn2c1-c1ccnc(C(F)(F)F)c1 [Example 42, N-cyclopropyl-3-[2-(trifluoromethyl)pyridin-4-yl]imidazo[1,2-b]pyridazine-2-carboxamide] | < 12200 | 357 | 415 | – | – | –
CNC(=O)c1nc2cccnn2c1-c1cc(F)c(Cl)cc1F [Example 93, 3-(4-chloro-2,5-difluorophenyl)-N-methylimidazo[1,2-b]pyridazine-2-carboxamide] | 4110 | 134 | 62.9 | – | – | –
N#Cc1cc(F)c(-c2c(C(=O)NC3CC3)nc3cccnn23)cc1F [Example 92, 3-(4-cyano-2,5-difluorophenyl)-N-cyclopropylimidazo[1,2-b]pyridazine-2-carboxamide] | > 1440 | 42.5 | 5.52 | – | – | –
O=C(N[C@@H]1C[C@@H]1F)c1nc2cccnn2c1-c1ccc(Cl)cc1 [Example 46, 3-(4-chlorophenyl)-N-[(1R,2S)-2-fluorocyclopropyl]imidazo[1,2-b]pyridazine-2-carboxamide] | 971 | 39.3 | 15.2 | – | – | –
CCCNC(=O)c1nc2cccnn2c1-c1ccc(Cl)c(F)c1 [Example 29, 3-(4-chloro-3-fluorophenyl)-N-propylimidazo[1,2-b]pyridazine-2-carboxamide] | 409 | 13.8 | 3.48 | – | – | –
COc1c(F)cc(-c2c(C(=O)N3CCC3)nc3cccnn23)cc1F [Example 3, Azetidin-1-yl[3-(3,5-difluoro-4-methoxyphenyl)imidazo[1,2-b]pyridazin-2-yl]methanone] | – | – | – | 2410 | 51.9 | 12.7
Cc1cc(C#N)c(F)cc1-c1c(C(=O)N2CCC2)nc2cccnn12 [Example 20, 4-[2-(azetidin-1-ylcarbonyl)imidazo[1,2-b]pyridazin-3-yl]-2-fluoro-5-methylbenzonitrile] | 490 | 74.8 | 6.7 | – | – | –
N#Cc1ccc(-c2c(C(=O)NC3CC3)nc3cccnn23)cc1F [Example 90, 3-(4-cyano-3-fluorophenyl)-N-cyclopropylimidazo[1,2-b]pyridazine-2-carboxamide] | 2620 | 25.5 | 21.4 | – | – | –
CC1CC1NC(=O)c1nc2cccnn2c1-c1ccc(Cl)cc1 (stereo not drawn) [Example 30, 3-(4-chlorophenyl)-N-(2-methylcyclopropyl)imidazo[1,2-b]pyridazine-2-carboxamide] | 4000 | 24.5 | 11.6 | – | – | –
N#Cc1cc(F)c(-c2c(C(=O)N3CCC3)nc3cccnn23)cc1F [Example 24, 4-[2-(azetidin-1-ylcarbonyl)imidazo[1,2-b]pyridazin-3-yl]-2,5-difluorobenzonitrile] | > 2150 | 59.7 | 5.04 | – | – | –
CNC(=O)c1nc2cccnn2c1-c1cc(F)c(Cl)cc1C [Example 25, 3-(4-chloro-5-fluoro-2-methylphenyl)-N-methylimidazo[1,2-b]pyridazine-2-carboxamide] | 4970 | 150 | 38.6 | – | – | –
O=C(c1nc2cccnn2c1-c1ccc2c(c1)CCO2)N1CCC1 [Example 50, azetidin-1-yl[3-(2,3-dihydro-1-benzofuran-5-yl)imidazo[1,2-b]pyridazin-2-yl]methanone] | 3140 | 235 | 28.1 | – | – | –
Cc1ccc(-c2c(C(=O)N3CCC3)nc3cccnn23)c(F)c1 [Example 54, azetidin-1-yl[3-(2-fluoro-4-methylphenyl)imidazo[1,2-b]pyridazin-2-yl]methanone] | > 20000 | 136 | 103 | – | – | –
COc1ccc(-c2c(C(=O)N3CCC3)nc3cccnn23)cc1F [Example 55, azetidin-1-yl[3-(3-fluoro-4-methoxyphenyl)imidazo[1,2-b]pyridazin-2-yl]methanone] | > 20900 | > 1550 | 176 | – | – | –
